Where two headings read alike, the source gives them in different places.
Key:
APE1 [1] = target: T1, APE1 (Homo sapiens, UniProt P27695); experiment: APE1 endonuclease activity: incision of depurinated plasmid (pUC18) DNA; format: biochemical; parameters: the full length APE1 protein was successfully expressed and purified; made in house; host or cells: E. coli BL21/DE3
Protocol: (§1) APE1 endonuclease activity was determined using an assay that measures the conversion of plasmid DNA from supercoiled to relaxed form by incision at an abasic site [35]–[36]. Briefly, the substrate used was 200 ng of depurinated pUC18 DNA in 10 µl of 1× APE1 buffer containing 50 mM Hepes, pH 7.4, 150 mM KCl, 5 mM MgCl2 and 100 µg/ml of BSA in presence of different concentrations of the cell extract (1 µl containing 0–55 ng of total protein). Similar reactions mixtures were set up with untreated pUC18, which served as the internal control. This reaction mixture was incubated at 37°C for 15 min, and the reaction was stopped by addition of alkaline stop mix (0.25% bromocresol green in 0.25N NaOH, 50% glycerol) and left at room temperature for 10–15 min. Then the products were resolved on a 0.8% agarose gel in 40 mM Tris-acetate and 2 mM EDTA for 2 h. The gel was stained with ethidium bromide to visualize supercoiled and relaxed plasmid DNA and imaged with a digital imaging system and the area under the supercoiled and relaxed form was determined. Final calculations were done in femtomoles (fmol) of abasic sites incised/min/mg protein with normalization done using Pyruvate Kinase units (PKU) present in these extracts. Poisson distribution calculations were done on supercoiled and relaxed bands to estimate incisions per plasmid molecule and the resulting depurinated pUC18 had 1 AP site per molecule. The endonuclease activity inhibition by lucanthone was analyzed using standard Lineweaver-Burke Plot to determine if the inhibition was competitive or non-competitive.

APE1 [2] = target: T1, APE1; experiment: EMSA (gel mobility shift) of APE1 DNA binding capacity with THF-containing substrate; format: biochemical; parameters: the full length APE1 protein was successfully expressed and purified; made in house; host or cells: E. coli BL21/DE3; details: 100 µM drug preincubated with APE1 30 min
Protocol: In order to elucidate whether lucanthone and hycanthone could inhibit APE1 by interfering with APE1-DNA interaction through their DNA intercalation ability, we measured the DNA binding capacity of APE1 in the presence of lucanthone and hycanthone by incubating different concentrations of APE1 (10 nM and 25 nM) with 100 µM of lucanthone and/or hycanthone for 30 min and subsequently incubating the mixture with 25 nM of THF-containing substrate at 25°C in binding buffer (50 mM HEPES, pH 7.5, 150 mM NaCl, 0.1 mg/ml BSA, 0.5 mM EDTA and 1 mM DTT) for 30 min. THF stands for tetrahydrofuran that represents a synthetic abasic site. This is commonly inserted into an oligonucleotide substrate for measuring APE1 cleavage activity. 5′-incision of THF by APE1 results in a residue that mimics reduced 5′-deoxyribose phosphate group. Since THF group lacks the 1′-OH group, it blocks β-elimination that is required for mediating any dRP lyase activity. The sequence of the APE1 substrate with THF group is 5′[…]-3′ as described by Liu et al.
APE1-DNA complex was then separated from unbound substrate DNA by electrophoresis under native conditions in a 1% agarose-0.1% acrylamide gel at 4°C for 1.5 h as described previously [50]–[51].

APE1 mutant proteins [3] = experiment: Cleavage of mutant APE1 proteins by lucanthone, Western blot; parameters: species or system human; details: 100 µM lucanthone, 37°C, 2 h
Protocol: (§2) Total purified protein concentration was determined by the ratio of A280/A260. 250 ng of APE1 treated with lucanthone or hycanthone (0.05–100 µM) for 2 h at 37°C in final volume of 30 µl were mixed with an equal volume of gel loading buffer (0.001% bromophenol blue, 4% SDS, 10% 2-ME, 20% glycerol, and 125 mM Tris pH 6.8) and denatured at 95°C for 5 min. Total protein concentration in cell extracts was determined using the Bradford assay (BioRad, Hercules, CA) and 25 µg of total protein from soluble or insoluble cell fractions were mixed with an equal volume of gel loading buffer (0.001% bromophenol blue, 4% SDS, 10% 2-ME, 20% glycerol, and 125 mM Tris pH 6.8) and denatured at 95°C for 5 min. This mixture was separated by SDS-PAGE (4% stacking, 7.5% resolving gel) for 2–3 h at 40 mA on a BioRad MiniPROTEAN II Electrophoresis Cell. To detect proteins, proteins were transferred onto a trans-Blot nitrocellulose membrane (0.45 µm; BioRad) overnight at 4°C at 15 mA in standard Tris-Glycine buffer containing 20% ethanol. […] Chemi-luminescence was developed using an ECL kit according to the manufacturer's instructions and detected by exposing the blot to HyperfilmECL for 30 s–3 min. […]

APE1 mutant proteins [4] = target: T2, APE1 mutant proteins (Homo sapiens, UniProt P27695, W280S); experiment: as above; details: 100 µM lucanthone, 37°C, 2 h
T2 construct: made in house
T2 sequence (P27695 2-318 W280S): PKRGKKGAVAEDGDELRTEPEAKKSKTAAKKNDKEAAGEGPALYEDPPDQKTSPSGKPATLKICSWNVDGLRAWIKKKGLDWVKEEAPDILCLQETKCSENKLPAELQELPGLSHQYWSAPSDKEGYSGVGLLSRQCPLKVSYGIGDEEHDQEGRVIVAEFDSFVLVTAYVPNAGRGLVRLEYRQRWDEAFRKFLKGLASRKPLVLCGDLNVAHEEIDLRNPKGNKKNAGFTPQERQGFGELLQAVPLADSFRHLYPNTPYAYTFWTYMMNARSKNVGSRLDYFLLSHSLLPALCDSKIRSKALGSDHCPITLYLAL
Protocol: as §2

APE1 [5] = target: T1, APE1; experiment: APE1 cleavage in whole cell extracts of U251 1-5 APE1 overexpressor clone, Western blot with protease inhibitor cocktail; parameters: the full length APE1 protein was successfully expressed and purified; made in house; host or cells: E. coli BL21/DE3; details: U251 1-5 whole cell extracts, 2 h, 37°C
Protocol: as §2

tubulin = experiment: Tubulin stability in U251 1-5 whole cell extracts, Western blot; details: lucanthone 2.5-100 µM; CRT at 200 µM
Protocol: as §2

[6] = target: T3, APE1 single mutants (F266A or W280S) (Homo sapiens, UniProt P27695, F266A); experiment: Endonuclease activity of APE1 hydrophobic site mutants with lucanthone; format: biochemical; details: 100 µM lucanthone, 2 h, 37°C
T3 construct: made in house
T3 sequence (P27695 2-318 F266A): as the sequence (P27695 2-318 W280S) above, with F265A, S279W counted along it
Protocol: as §1, with “Poisson distribution calculations were done on supercoiled and relaxed bands to estimate incisions per plasmid molecule and the resulting depurinated pUC18 had 1 AP site per molecule.” left out

T1 sequence (P27695 whole entry): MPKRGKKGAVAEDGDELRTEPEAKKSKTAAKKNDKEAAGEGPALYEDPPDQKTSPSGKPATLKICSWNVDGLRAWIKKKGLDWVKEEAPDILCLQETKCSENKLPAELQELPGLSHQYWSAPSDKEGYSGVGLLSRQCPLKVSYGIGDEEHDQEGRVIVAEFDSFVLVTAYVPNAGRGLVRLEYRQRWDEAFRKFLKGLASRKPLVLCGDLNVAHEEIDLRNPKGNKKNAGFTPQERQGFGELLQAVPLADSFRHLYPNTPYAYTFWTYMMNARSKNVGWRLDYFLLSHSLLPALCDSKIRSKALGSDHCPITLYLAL

## CCN(CC)CCNc1ccc(CO)c2sc3ccccc3c(=O)c12 [hycanthone]
APE1 [1]; read-out: IC50 for inhibition of APE1 incision of depurinated plasmid DNA
  IC50: 80 nM
APE1 [2]
  Inhibition of DNA binding capacity of APE1: not at all

## CCN(CC)CCNc1ccc(C)c2sc3ccccc3c(=O)c12 [lucanthone, 1-[2-diethylaminoethylamino]-4-methylthioxanthen-9-one]
APE1 mutant proteins [3]
  Cleavage of hydrophobic site mutants except W280S: did not undergo cleavage
APE1 mutant proteins [4]
  Cleavage of W280S mutant: significant cleavage
APE1 [1]
  IC50: 5000 nM
  Kinetics (mode) of inhibition, Lineweaver-Burke plot: non-competitive inhibitor
APE1 [1]; 100 µM lucanthone, 2 h, 37°C
  Inhibition of endonuclease activity of wild type APE1: corresponding inhibition of the endonuclease activity
APE1 [1]; 10-50 µM, 37°C, 2 h
  AP endonuclease activity of recombinant APE1: corresponding decrease in AP endonuclease activity
APE1 [5]
  Concentration causing cleavage of APE1: 50 µM
tubulin
  Effect on tubulin protein: unaffected
APE1 [2]
  Inhibition of DNA binding capacity of APE1: marginally inhibited
[6]
  Inhibition of endonuclease activity of single mutants F266A or W280S: no inhibition was detected

— paper PMC3174134, “Lucanthone and Its Derivative Hycanthone Inhibit Apurinic Endonuclease-1 (APE1) by Direct Protein Binding” (PLoS ONE, 2011)
